Tested on: LG0703-F948-PDC complex spheroid viability
Assay: Anticancer human tumor LG0703-F948-PDC patient-derived lung adenocarcinoma cell line growth inhibition [RAS]
Settings: for IC50: curve of first compound; for viability, T/C: stronger effect = lower value
Excerpt: RAS pathway inhibitors in Combinations in Complex Spheroids
A high-throughput screen of multi-cell type tumor spheroids was designed to identify active combinations of RAS pathway inhibitors and targeted small molecules. Complex spheroids include a stromal component modeled by human endothelial cells (HUVEC) and fibroblasts modeled by human mesenchymal stem cells (MSCs). The concentration ranges selected for each drug and investigational agent were based upon clinically achievable concentrations if the clinical Cmax of the agent was known.
Compounds. The drugs and investigational agents: abemaciclib (NSC768073), cobimetinib (NSC768068), divarasib (GDC6063, NSC841802), docetaxel (NSC628503), GDC-1971 (RLY-1971, NSC841576), gemcitabine (NSC613327), inavolisib (NSC800729), ipatasertib (NSC767898), KB-0742 (NSC834161), MRTX-1133 (NSC836407), osimertinib (NSC779217), RMC-4630 (NSC839698), RMC-6236 (NSC851965), RMC-6291 (NSC852671), Ro-3306 (NSC812927), sapanisertib (NSC764658), SN-38 (NSC673596), staurosporine (NSC755774), SY5609 (NSC837396), and tovorafenib (DAY101, NSC766906), were obtained from the National Cancer Institute (NCI) Developmental Therapeutics Program Chemical Repository. The FDA-approved anticancer drug set is available from the NCI Developmental Therapeutics Program. […] The stock solutions were prepared in dimethyl sulfoxide (DMSO, Sigma-Aldrich, St. Louis, MO, cat. D2650) at 800-fold the tested concentration and stored at -70 degrees C prior to their use. All drugs and investigational agents were tested over a range starting from a high concentration at or near the clinical Cmax and decreasing in half-log increments. If the clinical Cmax for an agent had not been determined, the highest concentration tested was 10 microM.
Cell Culture. All cells were maintained in an incubator at 37 degrees C and 5% CO2 with 95% humidity. The PDC lines were cultured according to standard operating procedures established by the NCI PDMR. All PDCs were thawed and cultured in Matrigel-coated flasks prepared with a working solution of 1X Ham's F-12 nutrient mix, without supplementation (Invitrogen, Waltham, MA, cat. 11765054), 100 U/mL penicillin-streptomycin (Invitrogen, cat. 15140122), and 2.5% Matrigel (Corning Inc., Corning, NY, cat. 354248) for the first three passages. The 362531-283-R-J2-PDC and 782815-120-R-J1-PDC lines were cultured in 6C/Colon 1B media, which includes advanced DMEM/F-12 (Thermo Fisher Scientific, cat. 12634028), 10 mM HEPES (Thermo Fisher Scientific, cat. 15630080), 1X GlutaMAX supplement (Thermo Fisher Scientific, cat. 35050061), 0.1 mg/mL primocin (InvivoGen, San Diego, CA, cat. ant-pm-2), 10% defined fetal bovine serum, heat inactivated (HyClone Laboratories Inc., Logan, UT, cat. SH30070.03HI), 50% L-WRN conditioned media (ATCC, cat. CRL-3276), 1.25 mM N-Acetyl-L-cysteine (Sigma-Aldrich, cat. A9165), 10 mM nicotinamide (Sigma-Aldrich, cat. N0636), 1X B-27 supplement (Thermo Fisher Scientific, cat. 17504044), 1X N-2 supplement (Thermo Fisher Scientific, cat. 17502048), 50 ng/mL human EGF (Thermo Fisher Scientific, cat. PHG0311), and 10 microM Y-27632 dihydrochloride (Tocris Bioscience, cat. 1254). The K12877-001-R-J1-PDC line was cultured in 6I media, which includes all 6C/Colon 1B media plus 10 ng/mL human FGF-10 (PeproTech, cat. 100-26), 1 ng/mL human FGF-2 (PeproTech, cat. 100-18B), 1 µM prostaglandin E2 (Tocris Bioscience, cat. 2296), […] hydrocortisone (Sigma-Aldrich, cat. H4001), and […] bovine insulin (Sigma-Aldrich, cat. I6634). The K86415-001-R-J1-PDC line was cultured in 6D media, which includes all 6C/Colon 1B media components minus the L-WRN conditioned media. The 485176-168-R4-J1-PDC was cultured in PANC media, which includes all 6C/Colon 1B media plus 100 ng/mL human FGF-10 (PeproTech, cat. 100-26), 500 nM SB-431542 (Selleckchem, cat. S1067), and 10 nM gastrin (Tocris Bioscience, cat. 3006). […]
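Note: spheroids exposed to agents for 7 days.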
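Throughout, for viability, T/C: 100% = DMSO vehicle wells.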

C=CC(=O)Nc1cc(Nc2nccc(-c3cn(C)c4ccccc34)n2)c(OC)cc1N(C)CCN(C)C + CCn1c(-c2cccnc2C(C)OC)c2c3cc(ccc31)N1CCOC(CC(NC(=O)C(C(C)C)N(C)C(=O)C3(F)CCN(C(=O)C#CC(C)(C)N(C)C)CC3)C(=O)N3CCCC(N3)C(=O)OCC(C)(C)C2)C1
IC50 (second compound 0.000949 µM): 13.1 nM
IC50 (second compound 0.003 µM): 13.9 nM
IC50 (second compound 0.00949 µM): 12.1 nM
IC50 (second compound 0.03 µM): 9.92 nM
IC50 (second compound 0.0949 µM): 4.89 nM
IC50 (second compound 0.3 µM): < 3.16 nM
viability, T/C (second compound 0.000949 µM, first compound 0.00316 µM): 78.5%
viability, T/C (second compound 0.000949 µM, first compound 0.01 µM): 56.9%
viability, T/C (second compound 0.000949 µM, first compound 0.0316 µM): 27.3%
viability, T/C (second compound 0.000949 µM, first compound 0.1 µM): 20.5%
viability, T/C (second compound 0.000949 µM, first compound 0.316 µM): 19.1%
viability, T/C (second compound 0.000949 µM, first compound 1 µM): 13.9%
viability, T/C (second compound 0.003 µM, first compound 0.00316 µM): 88.6%
viability, T/C (second compound 0.003 µM, first compound 0.01 µM): 57.5%
viability, T/C (second compound 0.003 µM, first compound 0.0316 µM): 31.1%
viability, T/C (second compound 0.003 µM, first compound 0.1 µM): 21.5%
viability, T/C (second compound 0.003 µM, first compound 0.316 µM): 16.2%
viability, T/C (second compound 0.003 µM, first compound 1 µM): 15.6%
viability, T/C (second compound 0.00949 µM, first compound 0.00316 µM): 83.4%
viability, T/C (second compound 0.00949 µM, first compound 0.01 µM): 55.6%
viability, T/C (second compound 0.00949 µM, first compound 0.0316 µM): 22.3%
viability, T/C (second compound 0.00949 µM, first compound 0.1 µM): 18.5%
viability, T/C (second compound 0.00949 µM, first compound 0.316 µM): 19.7%
viability, T/C (second compound 0.00949 µM, first compound 1 µM): 15.2%
viability, T/C (second compound 0.03 µM, first compound 0.00316 µM): 82.6%
viability, T/C (second compound 0.03 µM, first compound 0.01 µM): 49.6%
viability, T/C (second compound 0.03 µM, first compound 0.0316 µM): 26.6%
viability, T/C (second compound 0.03 µM, first compound 0.1 µM): 15.5%
viability, T/C (second compound 0.03 µM, first compound 0.316 µM): 17.4%
viability, T/C (second compound 0.03 µM, first compound 1 µM): 14.4%
viability, T/C (second compound 0.0949 µM, first compound 0.00316 µM): 60.2%
viability, T/C (second compound 0.0949 µM, first compound 0.01 µM): 33.1%
viability, T/C (second compound 0.0949 µM, first compound 0.0316 µM): 21.2%
viability, T/C (second compound 0.0949 µM, first compound 0.1 µM): 14.9%
viability, T/C (second compound 0.0949 µM, first compound 0.316 µM): 13.9%
viability, T/C (second compound 0.0949 µM, first compound 1 µM): 12.1%
viability, T/C (second compound 0.3 µM, first compound 0.00316 µM): 29.1%
viability, T/C (second compound 0.3 µM, first compound 0.01 µM): 17.5%
viability, T/C (second compound 0.3 µM, first compound 0.0316 µM): 9.89%
viability, T/C (second compound 0.3 µM, first compound 0.1 µM): 9.16%
viability, T/C (second compound 0.3 µM, first compound 0.316 µM): 9.3%
viability, T/C (second compound 0.3 µM, first compound 1 µM): 13.5%

CC(C)n1nc(-c2ccc3oc(N)nc3c2)c2c(N)ncnc21 + C=CC(=O)N1CCN(c2nc(OCC3CCCN3C)nc3c(F)c(-c4nc(N)cc(C)c4C(F)(F)F)c(Cl)cc23)C(C)C1
IC50 (second compound 0.00316 µM): 2.63 nM
IC50 (second compound 0.01 µM): 4.04 nM
IC50 (second compound 0.0316 µM): 3.57 nM
IC50 (second compound 0.1 µM): 3.98 nM
IC50 (second compound 0.316 µM): 4.22 nM
IC50 (second compound 1 µM): 4.58 nM
viability, T/C (second compound 0.00316 µM, first compound 0.000316 µM): 90.6%
viability, T/C (second compound 0.00316 µM, first compound 0.001 µM): 65.3%
viability, T/C (second compound 0.00316 µM, first compound 0.00316 µM): 49.1%
viability, T/C (second compound 0.00316 µM, first compound 0.01 µM): 29.7%
viability, T/C (second compound 0.00316 µM, first compound 0.0316 µM): 12.6%
viability, T/C (second compound 0.00316 µM, first compound 0.1 µM): 7.5%
viability, T/C (second compound 0.01 µM, first compound 0.000316 µM): 92.8%
viability, T/C (second compound 0.01 µM, first compound 0.001 µM): 79.9%
viability, T/C (second compound 0.01 µM, first compound 0.00316 µM): 55.6%
viability, T/C (second compound 0.01 µM, first compound 0.01 µM): 29.7%
viability, T/C (second compound 0.01 µM, first compound 0.0316 µM): 12.3%
viability, T/C (second compound 0.01 µM, first compound 0.1 µM): 7.9%
viability, T/C (second compound 0.0316 µM, first compound 0.000316 µM): 94.8%
viability, T/C (second compound 0.0316 µM, first compound 0.001 µM): 76%
viability, T/C (second compound 0.0316 µM, first compound 0.00316 µM): 52.3%
viability, T/C (second compound 0.0316 µM, first compound 0.01 µM): 30.9%
viability, T/C (second compound 0.0316 µM, first compound 0.0316 µM): 12.8%
viability, T/C (second compound 0.0316 µM, first compound 0.1 µM): 6.67%
viability, T/C (second compound 0.1 µM, first compound 0.000316 µM): 106%
viability, T/C (second compound 0.1 µM, first compound 0.001 µM): 78.3%
viability, T/C (second compound 0.1 µM, first compound 0.00316 µM): 57.6%
viability, T/C (second compound 0.1 µM, first compound 0.01 µM): 31.4%
viability, T/C (second compound 0.1 µM, first compound 0.0316 µM): 14.3%
viability, T/C (second compound 0.1 µM, first compound 0.1 µM): 8.14%
viability, T/C (second compound 0.316 µM, first compound 0.000316 µM): 103%
viability, T/C (second compound 0.316 µM, first compound 0.001 µM): 79.3%
viability, T/C (second compound 0.316 µM, first compound 0.00316 µM): 59%
viability, T/C (second compound 0.316 µM, first compound 0.01 µM): 31.5%
viability, T/C (second compound 0.316 µM, first compound 0.0316 µM): 12.9%
viability, T/C (second compound 0.316 µM, first compound 0.1 µM): 7.55%
viability, T/C (second compound 1 µM, first compound 0.000316 µM): 114%
viability, T/C (second compound 1 µM, first compound 0.001 µM): 84.8%
viability, T/C (second compound 1 µM, first compound 0.00316 µM): 59.2%
viability, T/C (second compound 1 µM, first compound 0.01 µM): 34.3%
viability, T/C (second compound 1 µM, first compound 0.0316 µM): 13.9%
viability, T/C (second compound 1 µM, first compound 0.1 µM): 6.36%
